In patent publication US11236044B2, “Selective inhibitors of 12(S)-lipoxygenase (12-LOX) and methods for use of the same” (THE REGENTS OF THE UNIVERSITY OF MICHIGAN, priority 2018, dated 2022):
Where two headings read alike, the source gives them in different places.

What was measured:
[1] = Pharmacokinetic study of the inhibitors in mice blood plasma (PO and IV); type: in vivo; conditions: for concentration at 2 h / concentration at 4 h / concentration at 7 h: mouse, plasma, 30 mg/kg
Method: Pharmacokinetic Study of the Inhibitors in Mice Blood Plasma
The blood plasma concentration of compounds A1, A2, and A4 in mice was determined following per os, oral compound administration (“PO”) and intravenous (“IV”) administration
Calibration curve. The concentration range was evaluated from 2.5-5000 ng/ml for compound A2, 1-5000 ng/ml for compound A4, and 5-5000 ng/ml for compound A1. The curve was built with linear regression with weighing (1/X2). The linear regression analysis was performed by plotting the peak area ratio (y) against the concentration (x) in ng/mL.
Instrument Conditions. The LC-MS and mass spectrometry conditions for the compounds tested are shown below.
Results. The individual and average compound A1, A2, and A4 concentration-time data for IV and PO dosed groups are listed in Table 1, and graphically presented in FIG. 1.

[2] = test system: thrombus formation in cremaster arterioles; experiment: Laser-induced cremaster arteriole thrombosis model; type: in vivo; conditions: WT mice, 3 mg/kg oral, twice a day for 2 days, versus PEG control; FIG. 4
Method: C57BL/6 wild-type (WT) control mice were purchased from Jackson Laboratories (Bar Harbor, Me., USA) and housed in the research facility at the University of Michigan. Compound A1 was synthesized and specifically formulated in Polyethylene Glycol 300 (PEG 300) for oral gavage dosing in mice for in vivo thrombosis and hemostasis studies. For laser-induced cremaster arteriole thrombosis model, mice were treated with compound A1 (3 mg/kg) or with PEG 300 via oral administration 2 times per day for 2 days prior to intravital microscopy studies on the third day.
Adult mice (10-12 weeks old) were anesthetized as described above and surgically prepared as described in detail, and a tracheal tube was inserted to facilitate breathing. The cremaster muscle was prepared and perfused with preheated bicarbonate-buffered saline throughout the experiment. DyLight 488-conjugated rat anti-mouse platelet GP1b8 antibody (0.1 μg/g; EMFRET Analytics) and Alexa Fluor 647-conjugated anti-fibrin (0.3 μg/g) or Alexa Flour 647 rat-anti mouse CD62P (3 μg/mouse) were administered by a jugular vein cannula prior to vascular injury. […] All captured images were analyzed for the change of fluorescent intensity over the course of thrombus formation after subtracting fluorescent background defined on an uninjured section of the vessel using the Slidebook program. […]

[3] = test system: platelet accumulation in the lung (FcγRIIa-mediated platelet activation); experiment: Anti-GPIX-induced HITT model for lung thrombosis; type: in vivo, transgenic mice expressing the human FcγRIIa receptor; conditions: 15 mg/kg oral gavage, four hours following HITT induction, versus PEG vehicle; FIG. 5
Method: Adult transgenic mice (10-12 weeks old) expressing the human FcγRIIa receptor on their platelets were anesthetized as described above and were orally gavaged with 15 mg/kg of A1 or control vehicle 30-minutes prior to IV bolus injection of 0.75 mg/kg anti-GPIX to induce activation of the FcγRIIa receptor on the platelets to mimic heparin-induced thrombocytopenia and thrombosis (“HITT”) in the mouse. The anti-GPIX antibody was conjugated to DyLight 488 to visualize its binding to platelets and platelet accumulation in the lung. 4 hours post-anti-GPIX induction, the animals were sacrificed and the lungs were visualized using the Li—COR Odyssey imager.
Representative images of platelet accumulation (green) in the mouse lungs from control (PEG vehicle) and A1-treated (15 mg/kg) mice are shown in FIG. 5

[4] = iv, IV 30 mg/kg, n=3 (outliers excluded), read-out: Concentration in Plasma, Mean
[5] = iv, IV 30 mg/kg, read-out: Concentration in Plasma, Mouse 1
[6] = iv, IV 30 mg/kg, read-out: Concentration in Plasma, Mouse 2
[7] = iv, IV 30 mg/kg, read-out: Concentration in Plasma, Mouse 3
[8] = po, PO 30 mg/kg, n=3 (outliers excluded), read-out: Concentration in Plasma, Mean
[9] = po, PO 30 mg/kg, read-out: Concentration in Plasma, Mouse 1
[10] = po, PO 30 mg/kg, read-out: Concentration in Plasma, Mouse 2
[11] = po, PO 30 mg/kg, read-out: Concentration in Plasma, Mouse 3

Concentration in Plasma, Mouse 2 ([1]; PO 30 mg/kg, 2 h): *899.2 ng/ml | concentration at 2 h ([1]; iv, IV 30 mg/kg, 2 h, n=3 (outliers excluded), read-out: Concentration in Plasma, Mean): 77.4 ng/mL | concentration at 2 h ([1]; iv, IV 30 mg/kg, 2 h, read-out: Concentration in Plasma, Mouse 1): 69.6 ng/mL | concentration at 2 h ([1]; iv, IV 30 mg/kg, 2 h, read-out: Concentration in Plasma, Mouse 2): 124 ng/mL | concentration at 2 h ([1]; iv, IV 30 mg/kg, 2 h, read-out: Concentration in Plasma, Mouse 3): 38.8 ng/mL | concentration at 4 h [1, 4]: 29.2 ng/mL | concentration at 4 h [1, 5]: 46.4 ng/mL | concentration at 4 h [1, 6]: 20.2 ng/mL | concentration at 4 h [1, 7]: 20.9 ng/mL | concentration at 7 h [1, 4]: 16.9 ng/mL | concentration at 7 h [1, 5]: 36.5 ng/mL | concentration at 7 h [1, 6]: 5.9 ng/mL | concentration at 7 h [1, 7]: 8.3 ng/mL | concentration at 2 h ([1]; po, PO 30 mg/kg, 2 h, n=3 (outliers excluded), read-out: Concentration in Plasma, Mean): 40.4 ng/mL | concentration at 2 h ([1]; po, PO 30 mg/kg, 2 h, read-out: Concentration in Plasma, Mouse 1): 21 ng/mL | concentration at 2 h ([1]; po, PO 30 mg/kg, 2 h, read-out: Concentration in Plasma, Mouse 3): 59.7 ng/mL | concentration at 4 h [1, 8]: 52.9 ng/mL | concentration at 4 h [1, 9]: 48.9 ng/mL | concentration at 4 h [1, 10]: 89.8 ng/mL | concentration at 4 h [1, 11]: 20 ng/mL | concentration at 7 h [1, 8]: 15.2 ng/mL | concentration at 7 h [1, 9]: 12.1 ng/mL | concentration at 7 h [1, 10]: 24.1 ng/mL | concentration at 7 h [1, 11]: 9.3 ng/mL
Structure (SMILES): COc1cccc(CNc2ccc(S(=O)(=O)Nc3cccc(Cl)c3)cc2)c1O [Compound A1, N-(3-chlorophenyl)-4-((2-hydroxy-3-methoxybenzyl)amino) benzenesulfonamide]
thrombus formation (platelet accumulation and fibrin formation) in cremaster arterioles [2]: impairs thrombus formation | thrombocytopenia and thrombosis (platelet accumulation) in mouse lungs [3]: inhibit thrombocytopenia and thrombosis in mouse lungs
